Laboratory results published in patent US9809597B2, “Ganciclovir derivatives for modulating innate and adaptive immunity and for use in immunotherapy” (The Board of Trustees of the Leland Stanford Junior …, priority 2015, dated 2017).

Tested on: BV-2 and primary microglia stimulated with IFNγ and LPS
Assay: RT-PCR of inflammatory transcripts in IFNγ/LPS stimulated microglia
Format: cell-based, mouse
Settings: 200 μM GCV, 24 hours
Procedure: BV-2 mouse microglia cells were grown in DMEM+10% FBS and THP-1 human monocyte cells were grown in RPMI-40+10% FBS+0.05 mM β-mercaptoethanol at 37° C., 5% CO2. Adherent cells were split using 1×TrypLE (Gibco). For cellular assays, cells were treated with the following concentrations of drugs as indicated in the DMEM without serum: 100-200 μM ganciclovir, 10 ng/ml IFNγ (R&D systems), 100 ng/ml LPS (Sigma-Aldrich), 1-10 μM Fludarabine (Selleckchem), 1 μM Ruxolitinib (Selleckchem), 1 μM TG-101348 (Selleckchem), 1 μM Amlexanox (Tocris bioscience) unless otherwise noted. All experiments were run in triplicates and replicated at least 3 times with cell lines and at least twice with primary microglia. Average data are shown for cell lines and representative data are shown for primary cells. Secreted signaling proteins were measured in supernatants from cultured cells stimulated with GCV and conditioned for 24 hours in the absence of serum using two independent Luminex arrays (Human Immune Monitoring Center, Stanford and Eve technologies, Canada). Nitrite assay was performed on conditioned culture supernatants of cells stimulated with drugs for 24 hours using the Griess Reagent System (Promega) according to manufacturer's instructions. To assess cellular viability, cell confluence was measured using an automated microscope (Cellavista; Roche). Mice were housed and bred according to the Institutional Animal Care and Use Committee guidelines. Primary microglia and astrocytes were isolated from P0-P3 C57BL/6 mouse pups. Cortices from pups were isolated, meninges removed and tissue was dissociated using a 25-gauge needle. Two cortices were plated on each poly-L-lysine coated T-75 flasks in DMEM/F12+10% FBS+1% penicillin/streptomycin. Microglia and astrocyte co-cultures were maintained for 3 weeks, after which microglia were isolated using CD11b magnetic beads (Miltenyi Biotec) according to the manufacturer's instructions. Isolated microglia were allowed to recover for 1-2 days and processed for cellular assays described above. RNA was isolated from cells using RNeasy mini kit from Qiagen. […] was converted to cDNA using SuperScript III reverse transcriptase kit (Life technologies). The cDNA was used to quantify specific targets using SYBR green in Roche Lightcycler 480. ΔΔCt values normalized against the experimental control to determine fold change in mRNA for each sample compared to untreated or vehicle treated control. β-actin or Ubc or both were used as housekeeping genes. Primer sequences were obtained from PrimerBank. Fold change is shown compared to the vehicle treated or untreated cells, unless otherwise noted.

[1] = BV-2 and primary microglia stimulated with IFNγ and LPS
[2] = IFNγ/LPS-stimulated STING^gt/gt primary microglia

Nc1nc(O)c2ncn(COC(CO)CO)c2n1 [GCV, Ganciclovir]
CCL2 transcript [1]: almost complete transcriptional inhibition
iNOS transcript [1]: almost complete transcriptional inhibition
iNOS and CCL2 transcripts in GCV treated STING^gt/gt microglia [2]: higher
reduction of inflammatory markers in STING^gt/gt primary microglia [2]: unable to do so
inflammatory markers in wildtype primary microglia (IFNγ/LPS-stimulated wildtype primary microglia): reduced
